Measured values published in patent publication US10202339B2, “Therapeutic compounds and compositions” (AGIOS PHARMACEUTICALS, INC., priority 2012, dated 2019).

Biological target: IDH2 R140Q (Homo sapiens (Human), UniProt P48735, R140Q)
Test: IDH2 R140Q enzymatic cofactor depletion assay (diaphorase/resazurin)
Assay type: biochemical
Conditions: IDH2 R140Q enzyme, one hour preincubation with compound, one hour reaction; read-out: Enz R140Q
In short: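 Enzyme preincubated with compound 1 h at room temperature, then reaction started with 50 μM NADPH and 6.3 mM α-KG and run 1 h at room temperature. Remaining NADPH measured by diaphorase (36 μg/ml)/resazurin (60 μM) stop mix, fluorescence read at Ex544/Em590 after 1 min.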

Sequence of IDH2 R140Q (P48735 40-452 R140Q): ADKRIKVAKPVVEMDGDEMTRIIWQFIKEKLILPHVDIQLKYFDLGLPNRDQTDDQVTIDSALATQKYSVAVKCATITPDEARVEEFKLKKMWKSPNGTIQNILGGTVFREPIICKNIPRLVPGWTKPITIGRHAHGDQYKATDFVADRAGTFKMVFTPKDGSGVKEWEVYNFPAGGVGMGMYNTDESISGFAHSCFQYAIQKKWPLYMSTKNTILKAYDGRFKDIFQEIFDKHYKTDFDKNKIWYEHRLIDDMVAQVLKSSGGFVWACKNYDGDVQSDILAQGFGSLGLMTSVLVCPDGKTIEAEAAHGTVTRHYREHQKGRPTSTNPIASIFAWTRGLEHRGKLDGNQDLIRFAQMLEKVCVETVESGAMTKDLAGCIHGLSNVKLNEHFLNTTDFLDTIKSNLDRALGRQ

Compound | IC50 [nM]
CC1CC1NS(=O)(=O)c1ccc(-c2ccsc2)c(NC(=O)Nc2cccc(C(F)(F)F)c2)c1 (stereo not shown) [Compound 152, N-(2-methylcyclopropyl)-4-(thiophen-3-yl)-3-(3-(3-(trifluoromethyl)phenyl)ureido)benzenesulfonamide] | 100 to 1000
O=C(Nc1cc(S(=O)(=O)NCC(F)(F)F)ccc1-c1ccccc1)Nc1ccncc1C(F)(F)F [Compound 78, N-(2,2,2-trifluoroethyl)-2-(3-(3-(trifluoromethyl)pyridin-4-yl)ureido)-[1,1′-biphenyl]-4-sulfonamide] | 100 to 1000
2-(3-(1-methyl-1H-pyrazol-5-yl)ureido)-N-(2,2,2-trifluoroethyl)-[1,1′-biphenyl]-4-sulfonamide [Compound 77] | 100 to 1000
O=C(Nc1cc(S(=O)(=O)NCC(F)(F)F)ccc1-c1ccccc1)Nc1cccnc1F [Compound 97, 2-(3-(2-fluoropyridin-3-yl)ureido)-N-(2,2,2-trifluoroethyl)-[1,1′-biphenyl]-4-sulfonamide] | 100 to 1000
O=C(Nc1ncc(Cl)s1)Nc1cc(S(=O)(=O)NCC(F)(F)F)ccc1OCC1CC1 [Compound 187, 3-(3-(5-chlorothiazol-2-yl)ureido)-4-(cyclopropylmethoxy)-N-(2,2,2-trifluoroethyl)benzenesulfonamide] | 100 to 1000
O=C(Nc1cccc(C(F)(F)F)c1)Nc1cc(S(=O)(=O)N2CCCC2)ccc1-c1ccsc1 [Compound 141] | 1000 to 10000
CCCCNS(=O)(=O)c1ccc(-c2ccsc2)c(NC(=O)Nc2cccc(C(F)(F)F)c2)c1 [Compound 114, N-butyl-4-(thiophen-3-yl)-3-(3-(3-(trifluoromethyl)phenyl)ureido)benzenesulfonamide] | 100 to 1000
CCOc1ccc(S(=O)(=O)NCC(F)(F)F)cc1NC(=O)Nc1ncc(Cl)s1 [Compound 191, 3-(3-(5-chlorothiazol-2-yl)ureido)-4-ethoxy-N-(2,2,2-trifluoroethyl)benzenesulfonamide] | 100 to 1000
Cc1ccnc(NC(=O)Nc2cc(S(=O)(=O)NCC(F)(F)F)ccc2-c2ccccc2)n1 [Compound 107, 2-(3-(4-methylpyrimidin-2-yl)ureido)-N-(2,2,2-trifluoroethyl)-[1,1′-biphenyl]-4-sulfonamide] | 1000 to 10000
O=C(Nc1cc(F)cc(F)c1)Nc1cc(S(=O)(=O)NCC(F)(F)F)ccc1-c1ccccc1 [Compound 89, 2-(3-(3,5-difluorophenyl)ureido)-N-(2,2,2-trifluoroethyl)-[1,1′-biphenyl]-4-sulfonamide] | 100 to 1000
O=C(Nc1nccc(C(F)(F)F)n1)Nc1cc(S(=O)(=O)NCC(F)(F)F)ccc1-c1ccccc1 [Compound 106, N-(2,2,2-trifluoroethyl)-2-(3-(4-(trifluoromethyl)pyrimidin-2-yl)ureido)-[1,1′-biphenyl]-4-sulfonamide] | 100 to 1000
O=C(Nc1cccc(C(F)(F)F)c1)Nc1cc(S(=O)(=O)NC2CCSCC2)ccc1-c1ccsc1 [Compound 134, N-(tetrahydro-2H-thiopyran-4-yl)-4-(thiophen-3-yl)-3-(3-(3-(trifluoromethyl)phenyl)ureido)benzene sulfonamide] | 100 to 1000
O=C(Nc1cccc(C(F)(F)F)c1)Nc1cc(S(=O)(=O)NCC(F)(F)F)cnc1N1CCOCC1 [Compound 203, 6-morpholino-N-(2,2,2-trifluoroethyl)-5-(3-(3-(trifluoromethyl)phenyl)ureido)pyridine-3-sulfonamide] | 100 to 1000
O=C(Nc1cccc(C(F)(F)F)c1)Nc1cc(S(=O)(=O)NCC(F)(F)F)ccc1OC1CCOCC1 [Compound 178, 4-((tetrahydro-2H-pyran-4-yl)oxy)-N-(2,2,2-trifluoroethyl)-3-(3-(3-(trifluoromethyl)phenyl)ureido)benzenesulfonamide] | 100 to 1000
O=C(Nc1cccc(C(F)(F)F)c1)Nc1cc(S(=O)(=O)NC2CC2)ccc1N1CCCOCC1 [Compound 349, N-cyclopropyl-4-(1,4-oxazepan-4-yl)-3-(3-(3-(trifluoromethyl)phenyl)ureido)benzenesulfonamide] | 100 to 1000
Cc1ccccc1NC(=O)Nc1cc(S(=O)(=O)Nc2ccccc2)ccc1-c1ccsc1 [Compound 2, N-phenyl-4-(thiophen-3-yl)-3-(3-(o-tolyl)ureido)benzenesulfonamide] | 100 to 1000
O=C(Nc1cccc(C(F)(F)F)c1)Nc1cc(S(=O)(=O)NCC(F)(F)F)ccc1C1CCCCO1 (stereo not shown) [Compound 165, 4-(tetrahydro-2H-pyran-2-yl)-N-(2,2,2-trifluoroethyl)-3-(3-(3-(trifluoromethyl)phenyl)ureido)benzene sulfonamide] | 100 to 1000
O=C(Nc1cc(S(=O)(=O)NC2CC2)ccc1-c1ccsc1)Nc1ccc(F)cc1C(F)(F)F [Compound 28, N-cyclopropyl-3-(3-(4-fluoro-2-(trifluoromethyl)phenyl)ureido)-4-(thiophen-3-yl)benzenesulfonamide] | 100 to 1000
CCc1ccccc1NC(=O)Nc1cc(S(=O)(=O)Nc2ccccc2)ccc1-c1ccsc1 [Compound 4, 3-(3-(2-ethylphenyl)ureido)-N-phenyl-4-(thiophen-3-yl)benzenesulfonamide] | 100 to 1000
O=C(Nc1cc(S(=O)(=O)NCC(F)(F)F)ccc1-c1ccccc1)NC1CCCC(C(F)(F)F)C1 (stereo not shown) [Compound 72, N-(2,2,2-trifluoroethyl)-2-(3-(3-(trifluoromethyl)cyclohexyl)ureido)-[1,1′-biphenyl]-4-sulfonamide] | 100 to 1000
CCS(=O)(=O)c1ccc(S(=O)(=O)NCC(F)(F)F)cc1NC(=O)Nc1cccc(C(F)(F)F)c1 [Compound 196, 4-(ethylsulfonyl)-N-(2,2,2-trifluoroethyl)-3-(3-(3-(trifluoromethyl)phenyl)ureido)benzenesulfonamide] | < 100
COCCNS(=O)(=O)c1ccc(-c2ccsc2)c(NC(=O)Nc2cccc(C(F)(F)F)c2)c1 [Compound 121, N-(2-methoxyethyl)-4-(thiophen-3-yl)-3-(3-(3-(trifluoromethyl)phenyl)ureido)benzenesulfonamide] | 100 to 1000
O=C(Nc1ccc(F)c(Cl)c1)Nc1cc(S(=O)(=O)NCC(F)(F)F)ccc1-c1cccnc1 [Compound 55] | 1000 to 10000
CC(C)C(CO)NS(=O)(=O)c1ccc(-c2ccsc2)c(NC(=O)Nc2cccc(C(F)(F)F)c2)c1 (stereo not shown) [Compound 123, N-(1-hydroxy-3-methylbutan-2-yl)-4-(thiophen-3-yl)-3-(3-(3-(trifluoromethyl)phenyl)ureido)benzene sulfonamide] | 100 to 1000
O=C(Nc1ncc(Cl)s1)Nc1cc(S(=O)(=O)NCC(F)(F)F)ccc1C1CCOC1 (stereo not shown) [Compound 172, 3-(3-(5-chlorothiazol-2-yl)ureido)-4-(tetrahydrofuran-3-yl)-N-(2,2,2-trifluoroethyl)benzene sulfonamide] | 1000 to 10000
Cc1ccc(F)c(NC(=O)Nc2cc(S(=O)(=O)Nc3ccccc3)ccc2-c2ccsc2)c1 [Compound 12, 3-(3-(2-fluoro-5-methylphenyl)ureido)-N-phenyl-4-(thiophen-3-yl)benzenesulfonamide] | 100 to 1000

The remaining lines, values ahead:

IC50 [nM] | Compound
100 to 1000 | CS(=O)(=O)c1cccc(NC(=O)Nc2cc(S(=O)(=O)NCC(F)(F)F)ccc2-c2ccccc2)c1 [Compound 67, 2-(3-(3-(methylsulfonyl)phenyl)ureido)-N-(2,2,2-trifluoroethyl)-[1,1′-biphenyl]-4-sulfonamide]
100 to 1000 | O=C(Nc1cccc(C(F)(F)F)c1)Nc1cc(S(=O)(=O)Nc2ccccc2)ccc1-n1ccnc1 [Compound 342, 4-(1H-imidazol-1-yl)-N-phenyl-3-(3-(3-(trifluoromethyl)phenyl)ureido)benzenesulfonamide]
100 to 1000 | O=C(Nc1cccc(C(F)(F)F)c1)Nc1cc(S(=O)(=O)Nc2ccccc2)ccc1Oc1ccccc1 [Compound 192, 4-phenoxy-N-phenyl-3-(3-(3-(trifluoromethyl)phenyl)ureido)benzenesulfonamide]
1000 to 10000 | O=C(Nc1cccc(C(F)(F)F)c1)Nc1cc(S(=O)(=O)Nc2cccnc2)ccc1-c1ccsc1 [Compound 150]
100 to 1000 | CC(C)CNS(=O)(=O)c1ccc(-c2ccsc2)c(NC(=O)Nc2cccc(C(F)(F)F)c2)c1 [Compound 116, N-isobutyl-4-(thiophen-3-yl)-3-(3-(3-(trifluoromethyl)phenyl)ureido)benzenesulfonamide]
1000 to 10000 | CC(C)c1cccc(NC(=O)Nc2cc(S(=O)(=O)Nc3ccccc3)ccc2-c2ccsc2)c1 [Compound 14]
1000 to 10000 | O=C(Nc1cccc(C(F)(F)F)c1)Nc1cc(S(=O)(=O)Nc2ccccc2)ccc1-n1cccn1 [Compound 344]
1000 to 10000 | CC(C)N(C)c1ccc(S(=O)(=O)Nc2ccccc2)cc1NC(=O)Nc1cccc(C(F)(F)F)c1 [Compound 347]
100 to 1000 | O=C(Nc1ccc(F)c(Cl)c1)Nc1cc(S(=O)(=O)NCC(F)(F)F)ccc1-c1ccccc1 [Compound 40, 2-(3-(3-chloro-4-fluorophenyl)ureido)-N-(2,2,2-trifluoroethyl)-[1,1′-biphenyl]-4-sulfonamide]
100 to 1000 | COc1cccc(NC(=O)Nc2cc(S(=O)(=O)Nc3ccccc3)ccc2-c2ccsc2)c1 [Compound 7, 3-(3-(3-methoxyphenyl)ureido)-N-phenyl-4-(thiophen-3-yl)benzenesulfonamide]
100 to 1000 | O=C(Nc1cccc(O)c1)Nc1cc(S(=O)(=O)NCC(F)(F)F)ccc1-c1ccccc1 [Compound 81, 2-(3-(3-hydroxyphenyl)ureido)-N-(2,2,2-trifluoroethyl)-[1,1′-biphenyl]-4-sulfonamide]
100 to 1000 | CCONS(=O)(=O)c1ccc(-c2ccsc2)c(NC(=O)Nc2cccc(C(F)(F)F)c2)c1 [Compound 139, N-ethoxy-4-(thiophen-3-yl)-3-(3-(3-(trifluoromethyl)phenyl)ureido)benzenesulfonamide]
1000 to 10000 | O=C(Nc1cccc(C(F)(F)F)c1)Nc1cc(S(=O)(=O)NC2CC2)ccc1OCc1ccccc1 [Compound 193]
> 10000 | O=C(Nc1cccc(C(F)(F)F)c1)Nc1cc(S(=O)(=O)Nc2ccccc2O)ccc1-c1ccsc1 [Compound 142]
